According to patent US20120190564A1, “IDENTIFICATION OF PROTEIN BINDING SITES” (priority 2000, published 2012):
Entries after “also recorded” stand apart in the source; their conditions may differ. Ends that are not written are not given here. code + = amino-terminal bromo-group; mmt = not defined here

Tests used:
Type in all cases: binding
monoclonal antibody 210 = assay: Standard linear Pepscan on all overlapping 12-mers of hTNF with mAb 210; settings: all overlapping linear 12-mers covering hTNF
Experimental: FIG. 10: Standard linear Pepscan on all overlapping synthetic 12-mers covering the linear sequence of hTNF with monoclonal antibody 210 (R&D Systems, MAB210, clone 1825.12, through ITK Diagnostics Uithoorn, The Netherlands). A small peak with the sequence IKSPCQRETPEG (SEQ ID NO: 2) was identified. The y-axis are optical density values (OD) obtained using a ccd-camera system. Rampo, rabbit-anti-mouse peroxidase (DAKO).
The monoclonal antibody mAb-210 raised against hTNF was tested on linear and loop peptides (mAb-210 was bought from R&D Systems, MAB210, clone 1825.12, through ITK Diagnostics Uithoorn, The Netherlands). Firstly, it was tested in Pepscan on all overlapping linear 12-mers covering hTNF. […] Secondly, it was tested in Pepscan matrix-scan on double 15-mer loop-loop peptides (as described in FIGS. 3 and 4 and explained through FIGS. 11-12). Two loop-regions were labeled: peptide sequence GQGCPSTHVLLT (SEQ ID NO: 65) (squares 65 to 67) and SAIKSPCQRE (SEQ ID NO: 28) (squares 92 to 96) (FIGS. 13, 14). In addition in various squares loop peptide spots were identified corresponding to sequence GQGCPSTHVLLT (SEQ ID NO: 65) (spots 65-67); SAIKSPCQRE (SEQ ID NO: 28) (spots 92-96) and KGDRLSAEINR (SEQ ID NO: 29) (spots 126-129) (FIG. 14). […]

Antibody-1 = assay: Pepscan ELISA on single or double hFSH peptide loops, Antibody-1; settings: individual loop peptides coupled as a single loop
Source text: (§1) FIG. 17: Result of Pepscan ELISA with two different antibodies on single or double peptide loops coupled to Pepscan minicards, as described above. Coupled to square-A: Loop peptide-1; Coupled to square-B: first Loop peptide-1 followed by Loop peptide-2; Coupled to square-C: Loop peptide-2; Coupled to square-D: first Loop peptide-2 followed by Loop peptide-1. Loop peptide-1: +KSYNRVTVMGGFKVEZ-conh2 (SEQ ID NO: 63); Loop peptide-2: +LQENPFFSQPGAPILZ-conh2 (SEQ ID NO: 64). The y-axis are optical density values (OD) obtained using a ccd-camera system. Both loop-peptides are derived from human Follicle-Stimulating Hormone (hFSH).
(§2) Two peptides that constitute two separate parts of a discontinuous epitope were coupled to the surface of a minicard as described above in the legend of FIG. 12 (cf. FIG. 3A and FIG. 4 (example-4)). A cys(mmt) was coupled alone or in combination with a cys(trt) (in a 1:1 ratio) and/or val(mmt) (the cys and val in a 1:1, 1:3, 1:9 etc. ratio). In this way one peptide was coupled (squares A and C) or two peptides with increasing valines in between the cysteines were coupled (squares B and D) (cf. FIG. 4B (example-4), FIG. 17). These four configurations were incubated with two different antibodies.

lysozyme-biotin = lysozyme-biotin (Gallus gallus, UniProt P00698); assay: Loop-loop Matrix-scan of CDR loop-peptide pairs with lysozyme-biotin; settings: lysozyme-biotin 100 ug/ml, in triplo
Chain of lysozyme-biotin (P00698 19-147): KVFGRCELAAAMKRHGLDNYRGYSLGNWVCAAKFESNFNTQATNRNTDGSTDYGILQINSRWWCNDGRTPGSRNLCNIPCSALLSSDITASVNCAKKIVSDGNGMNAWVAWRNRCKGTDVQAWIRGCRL
Experimental: FIG. 16: Result of the loop-loop 15-mer Matrix-scan of loop-loop CDR-regions of antibodies with lysozyme-biotin (100 ug/ml, in triplo). Using 1 μg/ml lysozyme-biotin no binding is observed (not shown). Controls of only streptavidin-peroxidase in between the tests were negative (not shown). Peptides A, B, C, D, E and F: Peptide-A: +ARERDYRLDYZ (SEQ ID NO: 30) (HCDR3 of 1 fdl.pdb); Peptide-B: +ARGDGNYGYZ (SEQ ID NO: 31) (HCDR3 of 1mlb.pdb); Peptide-C: +LHGNYDFDGZ (SEQ ID NO: 32) (HCDR3 of 3hfl.pdb); Peptide-D: +ANWDGDYZ (SEQ ID NO: 33) (HCDR3 of 3hfm.pdb); Peptide-E: +ARRYGNSFDYZ (SEQ ID NO: 34) (HCDR3 of 1qfw.pdb); Peptide-F: +ARQGTAAQPYWYZ (SEQ ID NO: 35) (HCDR3 of 1qfw.pdb) (1fdl.pdb, 1mlb.pdb, 3hfl.pdb and 3hfm.pdb are antibodies that bind lysozyme; 1qfw.pdb are two antibodies that bind human choriogonadotrophin). All peptides have an amino terminal bromo-group (+) and a carboxyterminal lysine-mmt (Z).
Peptides 1 to 27: Peptide-1: +RASGNIHNYLAZ (SEQ ID NO: 36) (LCDR1 of 1fdl.pdb); Peptide-2: +RASQSISNNLHZ (SEQ ID NO: 37) (LCDR1 of 1mlb.pdb); Peptide-3: +SASSSVNYMYZ (SEQ ID NO: 38) (LCDR1 of 3hfl.pdb); Peptide-4: +RASQSIGNNLHZ (SEQ ID NO: 39) (LCDR1 of 3hfm.pdb); Peptide-5: +RASESVDSYGNSZ (SEQ ID NO: 40) (LCDR1 of 1qfw.pdb); Peptide-6: +ASESVDSYGNSFZ (SEQ ID NO: 41) (LCDR1 of 1qfw.pdb); […]: +SESVDSYGNSFMZ (SEQ ID NO: 42) (LCDR1 of 1qfw.pdb); Peptide-8: +ESVDSYGNSFMQZ (SEQ ID NO: 43) (LCDR1 of 1qfw.pdb); Peptide-9: +RASESVDSYGNSFZ (SEQ ID NO: 44) (LCDR1 of 1qfw.pdb); Peptide-10: +ASESVDSYGNSFMZ (SEQ ID NO: 45) (LCDR1 of 1qfw.pdb); Peptide-11: +SESVDSYGNSFMQZ (SEQ ID NO: 46) (LCDR1 of 1qfw.pdb); Peptide-12: +RASESVDSYGNSFMZ (SEQ ID NO: 47) (LCDR1 of 1qfw.pdb); Peptide-13: +ASESVDSYGNSFMQZ (SEQ ID NO: 48) (LCDR1 of 1qfw.pdb); Peptide-14: +RASESVDSYGNSFMQZ (SEQ ID NO: 49) (LCDR1 of 1qfw.pdb); Peptide-15: +KASETVDSFVSZ (SEQ ID NO: 50) (LCDR1 of 1qfw.pdb); Peptide-16: +LLVYYTTTLADGZ (SEQ ID NO: 51) (LCDR2 of 1fdl.pdb); Peptide-17: +LLIKYVSQSSSGZ (SEQ ID NO: 52) (LCDR2 of 1mlb.pdb); Peptide-18: +RWIYDTSKLASGZ (SEQ ID NO: 53) (LCDR2 of 3hfl.pdb); Peptide-19: +LLIKYASQSISGZ (SEQ ID NO: 54) (LCDR2 of 3hfm.pdb); Peptide-20: +LLIYRASNLESGZ (SEQ ID NO: 55) (LCDR2 of 1qfw.pdb); Peptide-21: LLIFGASNRESGZ (SEQ ID NO: 56) (LCDR2 of 1qfw.pdb); Peptide-22: +QHFWSTPRTZ (SEQ ID NO: 57) (LCDR3 of 1fdl.pdb); Peptide-23: +QQSNSWPRTZ (SEQ ID NO: 58) (LCDR3 of 1mlb.pdb); Peptide-24: +QQWGRNPTZ (SEQ ID NO: 59) (LCDR3 of 3hfl.pdb); Peptide-25: +QQSNSWPYTZ (SEQ ID NO: 60) (LCDR3 of 3hfm.pdb); Peptide-26: +QQSDEYPYMYTZ (SEQ ID NO: 61) (LCDR3 of 1qfw.pdb); Peptide-27: +GQTYNHPYTZ (SEQ ID NO: 62) (LCDR3 of 1qfw.pdb) (1 fdl.pdb, 1mlb.pdb, 3hfl.pdb and 3hfm.pdb are antibodies that bind lysozyme; 1 qfw.pdb are two antibodies that bind human choriogonadotrophin). All peptides have an amioterminal bromo-group (+) and a carboxyterminal lysine-mmt (Z).
From six different antibodies, the HCDR3-region (complementary determining region three of the antibody heavy chain) was synthesized as synthetic loop-peptides. As an example, four different anti-lysozyme antibodies and two different anti-choriogonadotrophin antibodies were selected: 1fdl.pdb (D1.3), 1mlb.pdb (D44.1), 3hfl.pdb (HyHel-5), 3hfm.pdb (HyHel-10) all anti-lysozyme, and 1qfw.pdb, two anti-human choriogonadotrophin, one anti-alpha and one anti-beta. The synthetic loop peptides were coupled to the minicards as described above. The three-dimensional coordinates (pdb-files) were extracted from the Protein Data Bank (PDB) at www.rcsb.org (RCSB, Research Collaboratory for Structural Bioinformatics) (Berman et al., 2000, The Protein Data Bank. Nucleic Acids Research, 28 pp. 235-242; Bernstein et al. 1977, The protein data bank: A computer-based archival file for macromolecular structures. J. Mol. Biol. 112:535-542). […]

Antibody-2 = assay: Pepscan ELISA on single or double hFSH peptide loops, Antibody-2; settings: individual loop peptides coupled as single loops
Source text: as §1, §2

Substance	binding activity with lysozyme-biotin (lysozyme-biotin)	other results
IKSPCQRETPEG		Pepscan binding of monoclonal antibody 210 (optical density) (monoclonal antibody 210): minor peak; also recorded: small peak
+LQENPFFSQPGAPILZ-conh2 ({code +}-LQENPFFSQPGAPILX-NH2; not fully specified; printed as +LQENPFFSQPGAPILZ-conh2) [loop peptide-2, loop-peptide derived from human Follicle-Stimulating Hormone (hFSH)]		recognition by Antibody-1 (Antibody-1): recognized
+LHGNYDFDGZ (SEQ ID NO: 32)+ASESVDSYGNSFZ (SEQ ID NO: 41): loop-loop peptide pair: loop of HCDR3 of 3hfl.pdb and loop of LCDR1 1qfw.pdb (chain 1 {code +}-LHGNYDFDGK(mmt); chain 2 {code +}-ASESVDSYGNSFK(mmt); not fully specified; reading uncertain)	highest binding activity	
+KSYNRVTVMGGFKVEZ-conh2 ({code +}-KSYNRVTVMGGFKVEX-NH2; not fully specified; printed as +KSYNRVTVMGGFKVEZ-conh2) [loop peptide-1, loop-peptide derived from human Follicle-Stimulating Hormone (hFSH)]		recognition by Antibody-2 (Antibody-2): recognized
+LHGNYDFDGZ (SEQ ID NO: 32)+ASESVDSYGNSFMZ (SEQ ID NO: 45): loop-loop peptide pair: loop of HCDR3 of 3hfl.pdb and loop of LCDR1 1qfw.pdb (chain 1 {code +}-LHGNYDFDGK(mmt); chain 2 {code +}-ASESVDSYGNSFMK(mmt); not fully specified; reading uncertain)	highest binding activity	
+LHGNYDFDGZ (SEQ ID NO: 32)+SESVDSYGNSFMQZ (SEQ ID NO: 46): loop-loop peptide pair: loop of HCDR3 of 3hfl.pdb with loop of LCDR1 of 1qfw.pdb (chain 1 {code +}-LHGNYDFDGK(mmt); chain 2 {code +}-SESVDSYGNSFMQK(mmt); not fully specified; reading uncertain)	highest binding activity	
